Laboratory results: paper PMC9928118, “Funneling modulatory peptide design with generative models: Discovery and characterization of disruptors of calcineurin protein-protein interactions” (PLOS Computational Biology, 2023)
Blank lines part the entries; values can stand above or below the sequence they belong to.

Tested on: GST-tagged Cn
Test: PEPperPRINT peptide microarray binding assay with GST-tagged Cn
Method in brief: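 Qualitative binding: peptides printed on a PEPperPRINT microarray were incubated overnight at 4 °C with 1 mg/ml GST-tagged Cn, then detected with Alexa-Fluor 647 anti-GST antibody. Log fluorescence was baseline-corrected, averaged over duplicate spots, Z-normalized and averaged across five repeats.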

[1] = max over the chip locations listed for the peptide (two spots)
[2] = mean over the chip locations listed for the peptide (two spots)
[3] = GST-tagged Cn, max over the chip spots listed under Location on chip
[4] = GST-tagged Cn, mean over the chip spots listed under Location on chip
[5] = GST-tagged Cn, max over the spots on the chip (two locations)
[6] = GST-tagged Cn, mean over the spots on the chip (two locations)
[7] = max over the spots listed under Location on chip
[8] = mean over the spots listed under Location on chip
[9] = GST-tagged Cn, max over the chip locations
[10] = GST-tagged Cn, mean over the chip locations
[11] = GST-tagged Cn, max over the spots named in Location on chip
[12] = GST-tagged Cn, mean over the spots named in Location on chip

Sequence: ADEAGVQIVITVTELP [SeqRBMlowT_1446]
Chip Fluorescence (max) [1]: 3.577
Chip Fluorescence (mean) [2]: 1.112

Sequence: PLGTQPGIVVHVCELN [SeqRBMlowT_356]
Chip Fluorescence (max) [1]: 4.334
Chip Fluorescence (mean) [2]: 3.231

Sequence: TFWTNPQYRLWIVSVD [SeqRBM_2615]
Chip Fluorescence (max) [5]: 1.0899
Chip Fluorescence (mean) [6]: -0.4347

Sequence: PAGAGVGIVITVTEAE [SeqRBMlowT_166]
Chip Fluorescence (max) [7]: 3.117
Chip Fluorescence (mean) [8]: 1.082

Sequence: QGIYQDLGGINNFSIS [SeqCRZ1_Pseudogymnoascus_sp]
Chip Fluorescence (max) [9]: -0.4093
Chip Fluorescence (mean) [10]: -1.098

Sequence: HSKLIPKLSIQSPVHH [SeqRBMlowT_822]
Chip Fluorescence (max) [9]: 0.1809
Chip Fluorescence (mean) [10]: -0.5839

Sequence: PNLYENTLGIEQFTLS [SeqRBM_7749]
Chip Fluorescence (max) [11]: 1.865
Chip Fluorescence (mean) [12]: 0.2079

Sequence: HSKLIPKLSVQSPVHH [SeqRBMlowT_1714]
Chip Fluorescence (max) [11]: 1.671
Chip Fluorescence (mean) [12]: -0.5381

Sequence: DVSDSPDVDLKIPQAR [SeqRBM_5022]
Chip Fluorescence (max) [3]: 0.6546
Chip Fluorescence (mean) [4]: -0.1589

Sequence: MTPAAPIVRLHIPSSV [SeqRBM_8521]
Chip Fluorescence (max) [3]: 0.4752
Chip Fluorescence (mean) [4]: -0.03556

Sequence: GTMSPPDISITPPYAP [SeqRBM_3223]
Chip Fluorescence (max) [9]: 0
Chip Fluorescence (mean) [10]: -0.3136

Sequence: TFWTNPQFKVKLTDPD [SeqRBMlowT_2929]
Chip Fluorescence (max) [9]: -0.3202
Chip Fluorescence (mean) [10]: -2.672

Sequence: VALVIRSTDKDDVGNY [SeqCEACAM5_Bactrocera_latifrons]
Chip Fluorescence (max) [7]: 3.268
Chip Fluorescence (mean) [8]: 1.368

Sequence: TFNTNPQYTIQVVWPD [SeqRBM_7110]
Chip Fluorescence (max) [9]: -0.1833
Chip Fluorescence (mean) [10]: -1.179

Sequence: QGYKNPSAQFEPIGTK [SeqRBM_6874]
Chip Fluorescence (max) [9]: -0.3081
Chip Fluorescence (mean) [10]: -1.163

Sequence: FSNKASKARRMEPLSI [SeqRBM_824]
Chip Fluorescence (max) [5]: 1.106
Chip Fluorescence (mean) [6]: -0.01462

Sequence: LKDEFPEVRLNIISSL [SeqRBMlowT_1023]
Chip Fluorescence (max) [7]: 2.696
Chip Fluorescence (mean) [8]: 0.6595

Sequence: ATSEQPTFDLSSAMPT [SeqRBM_6206]
Chip Fluorescence (max) [9]: -1.8391
Chip Fluorescence (mean) [10]: -2.255

Sequence: HVSSSPDITVTPTQHR [SeqRBMlowT_701]
Chip Fluorescence (max) [9]: 0.2772
Chip Fluorescence (mean) [10]: -0.7766

Sequence: PALESPRIEITSYLGM [SeqNFATC1_Canis_lupus]
Chip Fluorescence (max) [11]: 1.5159
Chip Fluorescence (mean) [12]: -0.48

Sequence: TFWTNPQYKVKLEDPD [SeqRBMlowT_2919]
Chip Fluorescence (max) [3]: 0.9474
Chip Fluorescence (mean) [4]: 0.1413

Sequence: REYINPKMHFHFLNTV [SeqRBM_9087]
Chip Fluorescence (max) [11]: 1.764
Chip Fluorescence (mean) [12]: -0.3424

Sequence: KRMEPIAIIITDTEIS [SeqAKAP79_Pan_troglodytes]
Chip Fluorescence (max) [1]: 24.574
Chip Fluorescence (mean) [2]: 3.689

Sequence: TFWTNPQYTITLEEPD [SeqRBMlowT_2235]
Chip Fluorescence (max) [11]: 1.679
Chip Fluorescence (mean) [12]: 0.2149

Sequence: ADEAIPKIVIHPPEEP [SeqRBMlowT_1972]
Chip Fluorescence (max) [7]: 3.233
Chip Fluorescence (mean) [8]: -0.1428

Sequence: STSSLPTFSFSSLAPS [SeqRBMlowT_2354]
Chip Fluorescence (max) [5]: 1.162
Chip Fluorescence (mean) [6]: -0.4848

Sequence: HSKSSPKLSISSPVHH [SeqRBMlowT_1628]
Chip Fluorescence (max) [7]: 3.1562
Chip Fluorescence (mean) [8]: 1.038

Sequence: LNLKIPTIAKADITAT [SeqRBM_4458]
Chip Fluorescence (max) [11]: 1.846
Chip Fluorescence (mean) [12]: -0.3422

Sequence: RVLECPSIRITSISPT [SeqNFATC4_Homo_sapiens]
Chip Fluorescence (max) [9]: 0.1768
Chip Fluorescence (mean) [10]: -0.8782

Sequence: KKDVPPKILIEPPREF [SeqRBM_6642]
Chip Fluorescence (max) [3]: 0.9085
Chip Fluorescence (mean) [4]: -0.7336

Sequence: GPPATPSIVVHPCCCD [SeqRBM_2098]
Chip Fluorescence (max) [5]: 1.034
Chip Fluorescence (mean) [6]: -0.005812

Sequence: KKMAPPCINIDFAPEN [SeqRBMlowT_2474]
Chip Fluorescence (max) [11]: 1.579
Chip Fluorescence (mean) [12]: 0.1538

Sequence: KHATSPRINITQTSTL [SeqRBM_2048]
Chip Fluorescence (max) [3]: 0.7747
Chip Fluorescence (mean) [4]: -0.7747

Sequence: LKDEIPEVRLNIISNL [SeqRBMlowT_1003]
Chip Fluorescence (max) [1]: 3.957
Chip Fluorescence (mean) [2]: 2.453

Sequence: RAYINPFMMFRSGGNK [SeqSFB3_Cordyceps_militaris]
Chip Fluorescence (max) [3]: 0.6899
Chip Fluorescence (mean) [4]: -0.6148

Sequence: PVHTIHRVSLQDAGKY [SeqCEACAM5_Aedes_aegypti]
Chip Fluorescence (max) [3]: 0.8319
Chip Fluorescence (mean) [4]: -0.7144

Sequence: VQLFIHLPSSDDTGSY [SeqRBM_6875]
Chip Fluorescence (max) [5]: 1.006
Chip Fluorescence (mean) [6]: -4.049

Sequence: STSSLPTFSFSSPAPS [SeqRBMlowT_801]
Chip Fluorescence (max) [9]: -0.2979
Chip Fluorescence (mean) [10]: -1.46

Sequence: ARSFCPHRQVLSCKPK [SeqRBM_8304]
Chip Fluorescence (max) [1]: 4.921
Chip Fluorescence (mean) [2]: 0.2408

Now from value to sequence:

Chip Fluorescence (max) [3]: 0.4586
Chip Fluorescence (mean) [4]: 0.04317
Sequence: GTESTPSVVVHVCDSD [SeqRCN1_Desmodus_rotundus]

Chip Fluorescence (max) [3]: 0.42
Chip Fluorescence (mean) [4]: -0.6398
Sequence: RFRTELSFGFTGFGTD [Seqshuffled_9528]

Chip Fluorescence (max) [3]: 0.5862
Chip Fluorescence (mean) [4]: -1.046
Sequence: LNAIQEAQDKTDIRNK [Seqshuffled_9749]

Chip Fluorescence (max) [11]: 1.785
Chip Fluorescence (mean) [12]: -0.4136
Sequence: ATSGTFPQTEGSHKKQ [SeqRBMlowT_5854]

Chip Fluorescence (max) [5]: 1.277
Chip Fluorescence (mean) [6]: -0.2851
Sequence: GGPGTPGRQGGHLAPS [SeqRBMlowT_9820]

Chip Fluorescence (max) [1]: 4.084
Chip Fluorescence (mean) [2]: 0.2161
Sequence: VDIATNDLISELCNLC [Seqrandom_9952]

Chip Fluorescence (max) [5]: 1.08
Chip Fluorescence (mean) [6]: -0.755
Sequence: TFWTNPQFRIKVEDPD [SeqRBMlowT_6818]

Chip Fluorescence (max) [5]: 1.275
Chip Fluorescence (mean) [6]: 0.3801
Sequence: KVRTALYFTWNLTERG [Seqshuffled_9698]

Chip Fluorescence (max) [1]: 5.89
Chip Fluorescence (mean) [2]: 1.37
Sequence: SFWTNPQFKITLEEPD [SeqRBMlowT_6820]

Chip Fluorescence (max) [1]: 7.691
Chip Fluorescence (mean) [2]: 2.027
Sequence: TFWTNPQFRLKLEEVD [SeqRBMlowT_5628]

Chip Fluorescence (max) [3]: 0.7621
Chip Fluorescence (mean) [4]: -0.8277
Sequence: SAASFRIKQIEFMVSA [Seqshuffled_4815]

Chip Fluorescence (max) [5]: 1.236
Chip Fluorescence (mean) [6]: 0.1676
Sequence: TFWTNPQFKITLEEVD [SeqRBMlowT_4669]

Chip Fluorescence (max) [5]: 1.3045
Chip Fluorescence (mean) [6]: 0.5135
Sequence: RAYINPFMQFTDGGRR [SeqRBMlowT_4069]

Chip Fluorescence (max) [1]: 3.823
Chip Fluorescence (mean) [2]: 1.0203
Sequence: GTESTPSVVVHVCESE [SeqRCN1_Pongo_abelii]

Chip Fluorescence (max) [5]: 1.2052
Chip Fluorescence (mean) [6]: 0.7765
Sequence: LCVTGRERIAEDWLRP [Seqrandom_9974]

Chip Fluorescence (max) [3]: 0.7684
Chip Fluorescence (mean) [4]: -0.05563
Sequence: RAYINPFMQFTDDGRR [SeqRBMlowT_7881]

Chip Fluorescence (max) [1]: 7.244
Chip Fluorescence (mean) [2]: 0.4206
Sequence: GAWGLNKSGLFLINEV [Seqshuffled_9399]

Chip Fluorescence (max) [11]: 1.494
Chip Fluorescence (mean) [12]: 0.7951
Sequence: GDYMQGTLQAETGEHD [Seqshuffled_9624]

Chip Fluorescence (max) [1]: 4.236
Chip Fluorescence (mean) [2]: -0.3717
Sequence: GDPITVTFSFKQQSIR [Seqshuffled_9986]

Chip Fluorescence (max) [11]: 1.398
Chip Fluorescence (mean) [12]: -0.3065
Sequence: NIIKTLTAVARYCQHF [Seqrandom_9968]

Chip Fluorescence (max) [3]: 0.7348
Chip Fluorescence (mean) [4]: -0.3913
Sequence: QLRDIFQGRMITILTP [Seqshuffled_3466]

Chip Fluorescence (max) [1]: 4.191
Chip Fluorescence (mean) [2]: 0.5898
Sequence: SFVHLPDFKVESLVRR [Seqshuffled_9544]

Chip Fluorescence (max) [1]: 4.952
Chip Fluorescence (mean) [2]: 0.4575
Sequence: RQPGQALLELKGHAGA [SeqYPL247C_Erysiphe_pulchra]

Chip Fluorescence (max) [3]: 0.8772
Chip Fluorescence (mean) [4]: -0.6992
Sequence: PENKFQPFAIKLCVKG [Seqshuffled_5021]
